These compounds were tested against T1, PDK-1 (Homo sapiens, UniProt O15530) (assay: PDK-1 inhibition, radioactive-phosphate incorporation assay). Settings: 40 μM ATP.
T1 sequence (O15530 1-556): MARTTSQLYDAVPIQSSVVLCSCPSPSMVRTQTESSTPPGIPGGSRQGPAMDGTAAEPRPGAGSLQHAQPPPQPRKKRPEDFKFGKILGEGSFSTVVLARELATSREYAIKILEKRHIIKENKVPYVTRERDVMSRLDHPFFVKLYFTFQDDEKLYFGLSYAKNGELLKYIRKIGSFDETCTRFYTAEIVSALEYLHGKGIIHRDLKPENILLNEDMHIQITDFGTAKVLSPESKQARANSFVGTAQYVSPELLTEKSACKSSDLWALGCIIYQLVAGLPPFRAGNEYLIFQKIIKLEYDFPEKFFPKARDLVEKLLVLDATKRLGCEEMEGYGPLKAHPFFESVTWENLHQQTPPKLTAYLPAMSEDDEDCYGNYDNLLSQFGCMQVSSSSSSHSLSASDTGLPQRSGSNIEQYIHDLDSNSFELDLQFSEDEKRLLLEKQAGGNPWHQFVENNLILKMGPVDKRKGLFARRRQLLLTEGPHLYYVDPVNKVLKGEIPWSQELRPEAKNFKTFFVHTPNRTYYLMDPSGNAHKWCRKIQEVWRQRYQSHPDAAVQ
Format: biochemical
Method: Compounds were screened for their ability to inhibit PDK-1 using a radioactive-phosphate incorporation assay (Pitt and Lee, J. Biomol. Screen., (1996) 1, 47). Assays were carried out in a mixture of 100 mM HEPES (pH 7.5), 10 mM MgCl2, 25 mM NaCl, 2 mM DTT. Final substrate concentrations in the assay were 40 μM ATP (Sigma Chemicals) and 65 μM peptide (PDKtide, Upstate, Lake Placid, N.Y.). Assays were carried out at 30° C. and 25 nM PDK-1 in the presence of ˜27.5 nCi/μL of [γ-^32P]ATP (Amersham Pharmacia Biotech, Amersham, UK). An assay stock buffer solution was prepared containing all of the reagents listed above, with the exception of ATP, and the test compound of interest. 15 μl of the stock solution was placed in a 96 well plate followed by addition of 1 μl of 0.5 mM DMSO stock containing the test compound (final compound concentration 25 μM, final DMSO concentration […]). The plate was preincubated for about 10 minutes at 30° C. and the reaction initiated by addition of 4 μl ATP (final concentration 40 μM).
The reaction was stopped after 10 minutes by the addition of 100 μL 100 mM phosphoric acid, 0.01% Tween-20. A phosphocellulose 96 well plate (Millipore, Cat no. MAPHNOB50) was pretreated with 100 μL 100 mM phosphoric acid, 0.01% Tween-20 prior to the addition of the reaction mixture (100 μL). The spots were left to soak for at least 5 minutes, prior to wash steps (4×200 μL 100 mM phosphoric acid, 0.01% Tween-20). After drying, 20 μL Optiphase ‘SuperMix’ liquid scintillation cocktail (Perkin Elmer) was added to the well prior to scintillation counting (1450 Microbeta Liquid Scintillation Counter, Wallac).

**Q.** With `COc1cc(Nc2ncn(-c3ccccc3)n2)cc(OC)c1OC` [Compound I-42] as the compound, how does the Ki read?
**A.** 1000 to 10000 nM

**Q.** `OC[C@H]1CCCN(c2cc(-n3cnc(Nc4ccccc4)n3)ccn2)C1` [Compound I-65] was tested. Which Ki did it give?
**A.** 1000 to 10000 nM

**Q.** Which Ki does the source give for `CC(=O)N1[C@H](C)CN(c2cc(-n3cnc(Nc4ccccc4)n3)ccn2)C[C@@H]1C` [Compound I-74] here?
**A.** < 1000 nM

**Q.** Which Ki does the source give for `c1ccc(-n2cnc(Nc3ccc(N4CCOCC4)nc3)n2)cc1` [Compound I-134] here?
**A.** 1000 to 10000 nM
